Test results from US20070032556A1, “Aromatic polyamine derivative” (priority 2003, published 2007).
Like-named read-outs stand apart in the source and are kept apart here.

Experiment: solubility of the monomers or polymer in the coating solvent
Format: physicochemical
Protocol: In 100 g of mesitylene were dissolved 2.48 g (8 mmol) of 1,3,5-adamantanetricarboxylic acid trimethyl ester prepared in Synthesis Example 1 and 6.42 g (12 mmol) of 3,3′-diaminobenzidinetetracyclohexanoimine[N,N′,N″,N′″-tetracyclohexylidene-3,4,3′,4′-biphenyltetramine] prepared in Example 5 at room temperature in a nitrogen atmosphere and thereby yielded a coating composition having a monomer concentration of 8.2 percent by weight. The coating composition was passed through a filter with a pore size of 0.1 micron and was applied to an 8-inch silicon wafer by spin coating. This was heated at 300° C. in a nitrogen atmosphere for thirty minutes, was further heated at 400° C. for thirty minutes, and thereby yielded a film. The infrared absorption spectrum of the resulting polymer film was determined to find that the target crosslinked polybenzimidazole film was formed as shown in the infrared absorption spectral data in FIG. 1. The film has a film thickness of 300 nm.
The procedure of Example 15 was repeated, except for using the same amounts as in Example 15 of 1,3,5-adamantanetricarboxylic acid and 3,3′-diaminobenzidine instead of 1,3,5-adamantanetricarboxylic acid trimethyl ester and N,N′,N″,N′″-tetracyclohexylidene-3,4,3′,4′-biphenyltetramine, respectively, to find the solubility in the solvent (mesitylene) was low. Consequently, a coating composition having a monomer concentration of 1.2 percent by weight was prepared by the procedure of Example 15, except for using 0.54 g (2 mmol) of 1,3,5-adamantanetricarboxylic acid and 0.64 g (3 mmol) of 3,3′-diaminobenzidine. By using this coating composition, a polymer film was prepared by the procedure of […], and the infrared absorption spectrum of the polymer film was determined to find that the target crosslinked polybenzimidazole film was formed. The film has a film thickness of less than 20 nm.
A coating composition having a monomer concentration of 14.7 percent by weight was prepared by dissolving 4.42 g (12 mmol) of 1,3,5,7-adamantanetetracarboxylic acid tetramethyl ester and 12.83 g (24 mmol) of 3,3′-diaminobenzidinetetracyclohexanoimine[N,N′,N″,N′″-tetracyclohexylidene-3,4,3′,4′-biphenyltetramine] prepared according to Example 5 in 100 g of methyl isobutyl ketone (MIBK) at room temperature in a nitrogen atmosphere. The coating composition was passed through a filter with a pore size of 0.1 micron and was applied to an 8-inch silicon wafer by spin coating. This was heated at 300° C. in a nitrogen atmosphere for thirty minutes and further heated at 400° C. for thirty minutes to yield a film. The infrared absorption spectrum of the resulting polymer film was determined to find that the target crosslinked polybenzimidazole film was formed. The film has a film thickness of 400 nm.
The procedure of Example 16 was repeated, except for using the same amounts as in Example 16 of 1,3,5,7-adamantanetetracarboxylic acid and 3,3′-diaminobenzidine instead of 1,3,5,7-adamantanetetracarboxylic acid tetramethyl ester and N,N′,N″,N′″-tetracyclohexylidene-3,4,3′,4′-biphenyltetramine, respectively, to find that the solubility in the solvent (methyl isobutyl ketone: MIBK) was low. Consequently, a coating composition having a monomer concentration of 1.5 percent by weight was prepared by the procedure of Example 16, except for using 0.62 g (2 mmol) of 1,3,5,7-adamantanetetracarboxylic acid and 0.86 g (4 mmol) of 3,3′-diaminobenzidine. By using this coating composition, a polymer film was prepared by the procedure of Example 16, and the infrared absorption spectrum of the film was determined to find that the target crosslinked polybenzimidazole film was formed. The film has a film thickness of less than 20 nm. […]

For `O=C(O)C12CC3CC(C(=O)O)(C1)CC(C(=O)O)(C3)C2` [1,3,5-adamantanetricarboxylic acid], which “solubility in the solvent (mesitylene)” value is on record?
Its value is “low”.

For `O=C(O)C12CC3(C(=O)O)CC(C(=O)O)(C1)CC(C(=O)O)(C2)C3` [1,3,5,7-adamantanetetracarboxylic acid], which “solubility in the solvent (methyl isobutyl ketone: MIBK)” value is on record?
The value was “low”.

Which “solubility in the solvent (mesitylene)” value (same amounts as in Example 15 in 100 g mesitylene, room temperature, nitrogen atmosphere, acid and amine monomer dissolved together) does the source give for `Nc1ccc(-c2ccc(N)c(N)c2)cc1N` [3,3′-diaminobenzidine] here?
The value was “low”.

And the “solubility in the solvent (methyl isobutyl ketone: MIBK)” value (same amounts as in Example 16 in 100 g MIBK, room temperature, nitrogen atmosphere, acid and amine monomer dissolved together)?
The value was “low”.

And the “solubility in the solvent (dioxane)” value (same amounts as in Example 17 in 100 g dioxane, room temperature, nitrogen atmosphere, together with 1,3,5-adamantanetricarboxylic acid)?
The value was “low”.

With `Nc1ccc(-c2ccc(N)c(O)c2)cc1O` [3,3′-dihydroxybenzidine] as the compound, how does the “solubility in the solvent (propylene glycol monomethyl ether: PGME)” value (same amounts as in Example 19 in 100 g PGME, room temperature, nitrogen atmosphere, together with 1,3,5-adamantanetricarboxylic acid) read?
The value was “low”.
